Reference: ChEMBL document CHEMBL5728846, “6H-thieno[2,3-e][1,2,4]triazolo[3,4-c][1,2,4]triazepine derivative” (2021)

Assay: NF-keppaB Inhibitory Activity Evaluation Test: A549/NF-κB-luc cells (available from Panomics, Cat No. LR0051) were prepared at 375,000 cells/mL in the culture medium. The 375,000 cells/mL A549/NF-κB-luc cell suspension was seeded at 80 μL each on a white 96-well plate (available from Greiner, Cat No. 655073). One hour after seeding the cells, 10 μL of 2% DMSO solution (control) and each compound solution in each concentration were added to each well of the 96-well plate. One hour after the addition of each compound solution, 10 ng/mL of the TNF-α solution (10 μL) was added to each well of the 96-well plate. Three hours after the addition of 10 ng/mL of the TNF-α solution, 100 μL of Steady-Glo reagent (available from Promega, Cat No. E2510) was added to each well of the 96-well plate. After 30 to 90 minutes of the addition of the Steady-Glo reagent, the luminescence intensity of each well was detected by EnVision multilabel counter (available from PerkinElmer).

Cc1sc2c(c1C)C(c1ccc(Cl)cc1)=NN(Cc1cccc(F)n1)c1nnc(C)n1-2
IC50: 33.6 nM
